Assay results from patent publication US20240285553A1, “METHODS TO MODULATE MITOPHAGY WITH SREBP SIGNALING PATHWAY ACTIVATORS” (THE TRUSTEES OF INDIANA UNIVERSITY, priority 2021, published 2024).
Entries after “also recorded” stand apart in the source; their conditions may differ.

Columns and labels:
[1] = test system: SREBP1; assay: Immunofluorescence of SREBP1 nuclear accumulation; assay type: cell-based, human; conditions: ECs, IF
Source text: (§1) Immunofluorescence Microscopy. Cells were fixed with 4% Formaldehyde (Electron Microscopy Sciences, #C993M24) and permeabilized in the presence of 0.1% Triton X-100 (Sigma). Full-length SREBP1 was stained using mouse monoclonal antibody from Santa Cruz Biotechnology (Cat #sc-365513). Whereas nuclear SREBP1 was detected using antibody from Novus biological (Cat #NB100-2215). Mitophagy was confirmed by staining mitochondrial Tom20 and lysosomal marker LAMP1. Tom20 and LAMP1 antibodies were purchased from Cell Signaling (Cat #42406S and 15665S, respectively). Images were captured on an inverted fluorescent microscope (Leica).
NCEH1 knockdown experiments. NCEH1 was depleted using siRNA pool from Dharmacon or Lentiviral shRNA from Sigma. NCEH1 depletion was confirmed on a Western blot or by immunofluorescence assay.
Although pharmacological inhibition of NCEH1 promoted nuclear accumulation of SREBP1, genetic evidence further supports these observations. To this end, ECs were transfected with control or siNCEH1 siRNA and localization of SREBP1 or NCEH1 was captured on IF microscope.

[2] = test system: PAEC / ECs; assay: Immunofluorescence microscopy of Tom20 and lysosomal marker LAMP1 (mitophagy); assay type: cell-based, human; conditions: for mitophagy by immunofluorescence (Tom20/Lamp1): ECs
Source text: as §1, with “Mitophagy was confirmed by staining mitochondrial Tom20 and lysosomal marker LAMP1.” left out
(§2) First, degradation of a mitochondrial marker (TOM20) was evaluated as a bio-chemical marker of mitophagy induction.
Fixed cells were stained with Tom20 and Lamp1 and the fluorescence images were captured on a fluorescence microscope.

[3] = molecular target: T1, NCEH1-phosphatidylserine interactions (Homo sapiens, UniProt Q6PIU2); assay: Dot blot membrane strip assay of NCEH1 binding to phosphatidylserine; conditions: purified NCEH1 protein on lipid membrane strip, in vitro
T1 sequence (Q6PIU2 1-408): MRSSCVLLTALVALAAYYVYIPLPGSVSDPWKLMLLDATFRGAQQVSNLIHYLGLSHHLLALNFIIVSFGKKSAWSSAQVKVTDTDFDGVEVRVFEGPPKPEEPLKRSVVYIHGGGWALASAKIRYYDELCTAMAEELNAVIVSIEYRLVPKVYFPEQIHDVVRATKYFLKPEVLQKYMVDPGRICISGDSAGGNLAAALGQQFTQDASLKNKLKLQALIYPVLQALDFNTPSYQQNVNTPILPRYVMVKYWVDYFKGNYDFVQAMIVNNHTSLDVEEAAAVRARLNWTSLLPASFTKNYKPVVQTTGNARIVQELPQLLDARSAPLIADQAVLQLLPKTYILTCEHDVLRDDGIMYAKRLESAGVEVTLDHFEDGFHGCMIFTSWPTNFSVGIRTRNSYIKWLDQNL
Protocol: Membranes having the specified compounds were incubated with purified NCEH1 protein and the membrane was developed with NCEH1 antibody. […] ECs were treated with papuamide and cell extracts were blotted with indicated antibodies.

[4] = test system: MCT-induced PAH in rats; assay: Rat MCT (monocrotaline) model of PAH; assay type: in vivo
Protocol: Rat MCT model of PAH. SD rats were given one dose of MCT injection to induce pulmonary hypertension. […] Rats were anesthetized and RVSP recorded.
Rats were injected with MCT to develop PAH in a well-established 4 week rodent model of the disease.

[5] = test system: pulmonary arterial endothelial cells (PAECs); assay: Western blot of mitochondrial marker TOM20 as measure of mitophagy; assay type: cell-based, human; conditions: for Tom20 levels (mitophagy): ECs / PAEC
Source text: (§3) Western blot. Cell lysates were resolved on a SDS PAGE pre-cast gel (Invitrogen) and resolved proteins were transferred on to a PVDF membrane for further detection of proteins using specific antibodies. Antibodies for SREBP1 were purchased from Santa Cruz Biotechnology (Cat #sc-365513) and Novus biological (Cat #NB100-2215). SCD antibody was purchased from Santa Cruz Biotechnology (Cat #sc-58420). Tom20 and LAMP1 antibodies were purchased from Cell Signaling (Cat #42406S and 15665S, respectively).
as §2

[6] = molecular target: T2, SREBP1-NCEH1 complex (Homo sapiens, UniProt Q6PIU2); assay: Immunoprecipitation of endogenous SREBP1-NCEH1 complex; assay type: cell-based; conditions: ECs, vs vehicle
T2 construct: endogenous in cells; host or cells: cultured endothelial cells (ECs)
T2 sequence (Q6PIU2 1-408): T1 sequence (Q6PIU2 1-408)
Protocol: Immunoprecipitation Assay. In determining endogenous SREBP1-NCEH1 complex formation, cultured endothelial cells were treated with IP lysis buffer (Pierce Cat #87787). SREBP1 complex was captured using SREBP1 antibody from Santa Cruz Biotechnology (Cat #sc-365513) and resolved on a SDS PAGE. Complex formation with NCEH1 was detected by blotting with NCEH1 antibodies (Sigma Cat #HPA026888). To map the domain of SREBP1 that binds to NCEH1, HA tagged full-length SREBP1 or C-terminal regulatory domain alone were co-expressed along with Flag tagged NCEH1 in HEK293 cells. SREBP proteins were captured on HA antibodies (Cell Signaling) and blotted with Flag antibodies (Sigma).

[7] = test system: SREBP1; assay: Western blot of SREBP1, SCD and NCEH1 (SREBP1 activation); assay type: cell-based, human; conditions: for SCD (SREBP1 target) levels / SREBP1 levels (non-cleaved; decrease indicates cleavage and activation): ECs / PAEC; for SCD (SREBP1 target) levels / SREBP1 levels (non-cleaved; decrease indicates cleavage and activation) / NCEH1 levels: western blot
Source text: as §3, with “respectively). […]” for “respectively).”

[8] = test system: HF-PH mice; assay: High-fat diet AKR/J HF-PH mouse model; assay type: in vivo; conditions: 4 weeks, implanted mini osmotic pump, vs vehicle
Source text: FIG. 14: Using a mouse model fed a high-fat diet, AKR/J mice develop obesity, insulin resistance, heart failure with preserved ejection fraction, and pulmonary hypertension and are designated as “HF-PH mice”.
Using a mouse model fed a high-fat diet (Research Diets, New Brunswick, NJ) for 16-20 weeks, AKR/J mice (Jackson Laboratories, Bar Harbor, ME) develop obesity, insulin resistance, heart failure with preserved ejection fraction, and pulmonary hypertension. (Meng, et al., 2017; Arwood, et al., 2019).

[9] = test system: SREBP1 pathway; assay: RNA sequencing and pathway analysis of propranolol-treated ECs; assay type: cell-based, human; conditions: ECs treated with propranolol
Source text: SREBP1 is a key transcription factor that promotes lipid synthesis upon activation. Normally, SREBP1 protein is retained in the endoplasmic reticulum by high levels of cholesterol. When the cholesterol levels drop, SREBP1 protein gets translocated to the Golgi where it is cleaved, and the transcriptional activation portion of this protein gets translocated to the nucleus. Subsequently, SREBP1 activates a transcription program of genes involved in lipid synthesis. RNAseq data was generated to study mechanisms of propranolol-mediated PAEC mitophagy induction. […] ECs were treated with propranolol and the total RNA isolated from the cells were subjected to high through-put RNA sequencing.

[10] = test system: ECs; assay: Transmission electron microscopy for mitophagy; assay type: cell-based, human; conditions: 10 uM propranolol, 10 uM R-propranolol or 0.1 uM JW480 for 12 hours
Protocol: Transmission Electron Microscopy. […] Thin sections from these fixed cell blocks were visualized on Tecnai Spirit (ThermoFisher) TEM Microscope. Images captured were analyzed.
TEM evidence. […] ECs exposed to these drugs were fixed and the images were captured on a TEM.

[11] = test system: laser-induced CNV in mice; assay: Laser-induced choroidal neovascularization (CNV) mouse model; assay type: in vivo; conditions: 20 mg/kg for seven days
Protocol: The eye offers an opportune model to study vascular pathology. The laser-induced choroidal neovascularization (CNV)) mouse model is used to study pathologic exudative angiogenesis as a major contributor to age-related macular degeneration (AMD). To test the protective effects of NCEH1 blockade, CNV was induced in two groups of mice that are exposed to either vehicle or 20 mg/kg of JW480 for seven days (n=12 each). […] Cumulatively, these mice studies provide evidence for the therapeutic use of JW480 in pathological CV conditions.

[12] = test system: myocardial infarction in mice; assay: Myocardial infarction (MI) mouse model, ligation of the left coronary artery; assay type: in vivo
Protocol: Ligation of the left coronary artery is a well-accepted mouse model of myocardial infarction (MI), associated with high mortality (>70% in lwk). […] Mice were treated with vehicle or 20 mg/kg JW480 (IP, n=6 males & 6 females) for five days and subjected to an MI.

[13] = donor (non-PAH control)-derived PAEC / normal control ECs

Q: What does the source list for `CC(C)NCC(O)COc1cccc2ccccc12` (racemic) [propranolol]?
A: nuclear translocation of SREBP1 [1]: promoted nuclear translocation of SREBP1; mitophagy by immunofluorescence (Tom20/Lamp1) [2]: induce mitophagy; also recorded: Tom20 was mobilized to lysosome; TOM20/Lamp1 co-staining ([2]; propranolol treated PAH patient-derived PAEC): reduced TOM20/Lamp1 co-staining; NCEH1-phosphatidylserine interaction [3]: disrupts NCEH1-phosphatidylserine interactions; right ventricle systolic pressures (RVSP) ([4]; 10 mg/kg IP for the last 2 of 4 weeks): significantly reduced; MCT-induced arterial wall thickness ([4]; 10 mg/kg IP, lung sections H&E): negated MCT-induced arterial wall thickness; Tom20 levels (mitophagy) [5]: decreased Tom20 levels; also recorded: robustly induced mitophagy; also recorded: TOM20 levels go down; also recorded: lower; mitophagy induction (TOM20 level) ([5]; PAH patient-derived PAEC): reduced TOM20 levels; also recorded: consistently decreased Tom20 levels in PAH patient cells much more robustly than in normal cells; mitophagy induction (TOM20 level) [5, 13]: reduced TOM20 across all cells; full length SREBP1 immunoprecipitated ([6]; anti-SREBP1 antibody beads): less full length SREBP1 immunoprecipitated; NCEH1 complexed with full length SREBP1 ([6]; blotted with NCEH1 antibody): reduced NCEH1 complexed with full length SREBP1; SCD (SREBP1 target) levels [7]: increased; also recorded: elevated; SREBP1 levels (non-cleaved; decrease indicates cleavage and activation) [7]: SREBP1 levels go down; also recorded: reduce SREBP1 levels; NCEH1 levels ([7]; ECs): higher; effect on inhibitor effects of fatostatin ([7]; PAEC, propranolol with fatostatin, last lane of western blot): able to rescue inhibitor effects of fatostatin; right ventricular systolic pressure [8]: significantly decreased; SREBP1 transcriptional targets and transcript levels (RNA-seq) [9]: activated transcriptional targets, as well as transcript levels of SREBP1; mitophagy by TEM (bilipid membrane formation around mitochondria) [10]: promotes bilipid membrane formation around mitochondria more frequently than vehicle treated cells; also recorded: promoted mitophagy

Q: How did the “mitophagy induction (TOM20 level)” value ([5]; PAH patient-derived PAEC) turn out when `N#CC(C#N)=NNc1cccc(Cl)c1` [CCCP, carbonyl cyanide m-chlorophenylhydrazone] was run?
A: Its value is “not observed; also recorded: failed to promote mitophagy”.

Q: What about the “mitophagy induction (TOM20 level)” value [5, 13] of the same molecule?
A: The value was “induced mitophagy; also recorded: promotes mitophagy”.

Q: Which “nuclear translocation of SREBP1” value [1] does the source give for `CC(C)c1ccccc1OC(=O)NCCc1ccc2ccccc2c1` [JW480] here?
A: The value was “promoted nuclear translocation of SREBP1”.

Q: What about the “mitophagy by immunofluorescence (Tom20/Lamp1)” value [2] of the same molecule?
A: Its value is “Tom20 was mobilized to lysosome”.

Q: And the “pathologic CNV” value [11]?
A: The value was “inhibited pathologic CNV”.

Q: And the retinal vessel leakage [11]?
A: Its retinal vessel leakage is “significantly reduced retinal vessel leakage”.

Q: What about the NCEH1-phosphatidylserine interaction [3] of the same molecule?
A: Its NCEH1-phosphatidylserine interaction is “disrupts NCEH1-phosphatidylserine interactions”.

Q: What about the “Tom20 levels (mitophagy)” value [5] of the same molecule?
A: The value was “lower”.

Q: And the “Tom20 levels (mitophagy)” value ([5]; listed as NCEH1)?
A: Its value is “reduced the levels of Tom20”.

Q: What about the “intracellular lipid droplets (TEM)” value ([12]; JW480-treated mice) of the same molecule?
A: The value was “increased intracellular lipid droplets”.

Q: And the “survival after MI” value ([12]; mice, 20 mg/kg IP for five days before MI)?
A: The value was “significantly improved survival”.

Q: And the “SCD (SREBP1 target) levels” value [7]?
A: Its value is “elevated”.

Q: And the “SREBP1 levels (non-cleaved; decrease indicates cleavage and activation)” value [7]?
A: Its value is “reduce SREBP1 levels”.

Q: What about the “SCD (SREBP1 target) levels” value ([7]; listed as NCEH1) of the same molecule?
A: The value was “sufficient to activate SREBP1 target SCD”.

Q: What about the NCEH1 levels ([7]; ECs) of the same molecule?
A: Its NCEH1 levels is “higher”.

Q: What about the “mitophagy by TEM (bilipid membrane formation around mitochondria)” value [10] of the same molecule?
A: The value was “promoted mitophagy”.

Q: How did the “mitophagy by immunofluorescence (Tom20/Lamp1)” value [2] turn out when `CCN(CC)CCO[C@H]1CC[C@@]2(C)C(=CC[C@@H]3[C@@H]2CC[C@]2(C)C(=O)CC[C@@H]32)C1.Cl` [U18666A] was run?
A: Its value is “induce mitophagy”.

Q: With `COCCc1ccc(OCC(O)CNC(C)C)cc1` (stereo not drawn) [metoprolol] as the molecule, how does the “Tom20 levels (mitophagy)” value [5] read?
A: Its value is “failed to promote mitophagy”.

Q: With `OC(CNCC(O)C1CCc2cc(F)ccc2O1)C1CCc2cc(F)ccc2O1` (stereo not drawn) [nebivolol] as the molecule, how does the “Tom20 levels (mitophagy)” value [5] read?
A: The value was “failed to promote mitophagy”.

Q: Which results are given for papuamide?
A: nuclear translocation of SREBP1 [1]: promotes nuclear translocation of SREBP1; activation of non-canonical SREBP1 pathway ([7]; ECs, cell extracts blotted): activate a non-canonical SREBP1 pathway
